Measurements taken from patent EP1067939B1, “USE OF STEROIDAL ALKALOID DERIVATIVES AS INHIBITORS OF HEDGEHOG PROTEIN SIGNALING PATHWAYS” (The Johns Hopkins University, priority 1998, dated 1999).

What was measured:
[1] = tested on: chick embryos; settings: in ovo, highest concentrations tested, 50µM
Text: • 1. M. Hammerschmidt, A. Brook, A. P. McMahon, Trends Genet, 13, 14-21 (1997). • 2. C. Chiang, et al., Nature, 383,407-413 (1996). • 3. Y. Tanabe, T. M. Jessell, Science 274, 1115-1123 (1996). • 4. T. P. Yamaguchi, Curr. Opin. Genet. Dev. 7, 513-518 (1997). • 5. N. Shubin, C. Tabin, S. Carroll, Nature 388, 639-648 (1997). • 6. A. E. Oro, et al., Science 276, 817-821 (1997). • 7. M. M. Cohen, K. K. Sulik, J. Craniofac. Genet. Deve. Biol. 12, 196-244 (1992). • 8. E. Belloni, et al., Nature Genet. 14, 353-356 (1996). • 9. E. Roessler, et al., Nature Genet. 14, 357-360 (1996). • 10. J. A. Porter, et al., Nature 374, 363-366 (1995). • 11. J. A. Porter, K. E. Young, P. A. Beacy, Science 274, 255-259 (1996b). • 12. J. J. Lee, et al., Science 266, 1528-1537 (1994). • 13. J. A. Porter, et al., Cell 86, 21-34 (1996a). • 14. C. Roux, Arch. Franc. Pediatr. 21, 451-464 (1964). • 15. C. Roux, C. R. Soc. Biol. 160, 1353-1357 (1966). • 16. D. B. Dehart, L. Lanoue, G. S. Tinit, K. K. Sulik, Am J. Med. Genet. 68, 328-337 (1997). • 17. M. Kraml, J. F. Bagli, D. Dvornik, Biochem. and Biophysical Res. Com. 15, 455-457 (1964). • 18. J. Avigan, D. Steinberg, H. E. Vroman, M. J. Thompson, E. Mosettig, J. Biol. Chem 235, 3123-3126 (1960). • 19. R. B. Clayton, A. N. Nelson, I. D. Frantz Jr., J. Lipid Res. 4, 166-178 (1963). • 20. J. Aufenanger, J. Pill, K. Stegmeier, F. H. Schmidt, Horm. Metabol. Res. 17, 612-613 (1986). • 21. […] G. Popjak, A. Meenean, E. J. Parish, W. D. Nes, J. Biol. Chem 264,6230-6238 (1989). • 23. H. Yoshikawa, Brain Deve. 13, 115-120 (1991). • 24. R. I. Kelley, et al., Am. J. Of Med. Gen. 66, 478-484 (1996). • 25. G. S. Tint, et al., New England Journal of Medicine 330, 107-113 (1994). • 26. T.E. Willnow, et al., Proc. Natl. Acad. Sci USA 93, 8460-8464 (1996). • 27. S. Stefansson, D. A. Chappell, K. M. Argraves, D. K. Strickland, W. S. Argraves, J. Biol. Chem. 270, 19417-19421 (1995). • 28. W. Binns, L. F. James, J. L. Shupe, G. Everett, Am. J. Vet. Res. 24, 1164-1174 (1963). • 29. R. F. Keeler, W. Binns, Teratology 1, 5-10 (1968). • 30. P. A. Beachy, et al., CSH Symp. Quant. Biol. 62, in press (1997). • 31. […]

[2] = tested on: Ptc -/- MEFs; assay: β-galactosidase activity in ptc-lacZ mouse embryonic fibroblasts; assay type: cell-based; settings: Ptc -/- MEFs 21-4, 16 hours (Figure 15)
Text: These studies involve the use of mouse embryonic fibroblasts (MEFs) that were generated by trypsin digestion of E8.5 embryos from patched (ptc) +/- matings.
The MEF line 23-4 is heterozygous for ptc-lacZ, and thus contains one functional ptc allele capable of maintaining a repressed state of the pathway, but will express lacZ when the pathway is activated by addition of Shh protein (see Figure 12).

Row | SMILES | embryos displayed normal morphology [1] | reduction of β-galactosidase activity [2]
1 | CC1=C2C[C@H]3[C@@H](CC=C4C[C@@H](O)CC[C@@]43C)[C@@H]2CC[C@]12O[C@@H]1C[C@H](C)CN[C@H]1[C@H]2C [Cyclopamine, cyclopamine] | 2/10 | 
2 | C[C@H]1CC[C@]2(NC1)O[C@H]1C[C@H]3[C@@H]4CC[C@H]5C[C@@H](O)CC[C@]5(C)[C@H]4CC[C@]3(C)[C@H]1[C@@H]2C [Tomatidine, tomatidine] |  | cannot he achieved
